How the values were obtained:
[1] = Lipid hydroperoxides in partially oxidized SUV liposomes; details: 5 mM, after 24 h
Protocol: SUV liposomes were prepared from egg lecitin at 10% lipid concentration in a 50 ml HEPES buffer pH=6.9 according to already published procedures [Lichtenberg, D. and Barenholz. Y. (1988) Methods of Biochemical Analysis 33:337-462].
Lipid hydroperoxides were monitored by a modified micromolar sensitive spectroscopic method [Siddiqi, A. M. and Tappel, A. L. (1955) Chemist Analyst 44:52]. 50λ of lipids (liposomes or emulsion) were dissolved in 1 ml ethanol. 50λ of 50% potassium iodide solution were then added and the mixture was incubated for half an hour in the dark. The developed color was read in a spectrophotometer at 400 nm.
SUV Liposomes (12.5 mM) with certain degrees of oxidation were incubated with 5 mM AMTP molecules for period of 24 h. Peroxidation number (PN) was measured with potassium iodide in ethanol. AMTPs were able to decompose lipid hvdroperoxide and to reduce the peroxidation number (PN).

[2] = Superoxide radical assay (xanthine/xanthine oxidase, cyt C reduction)
Protocol: Superoxide radicals were produced from reactions of xanthine/xanthine oxidase [Mccord, J. M. and Fridovich I. (1969) J. Biol. Chem. 244:6049-6055]. The enzyme unit was adjusted to produce a linear flux of superoxide radicals which gave a slope of 0.12 OD/min at 550 nm. by reduction of cyt-C.
Superoxide radicals were produced by the xanthine/xanthine oxidase system, and the prevention of cyt C reduction by compound B was measured (FIG. 8). […] The spontaneous second order reaction rate constant of superoxide with compound B was calculated from the initial slope to be 8.1*10^2 M^-1 S^-1.

Human neutrophils (PMNs) = assay: Chemiluminescence of PMNs activated by cationized streptococci; type: cell-based
Protocol: Human neutrophils (PMNs) were isolated from freshly drawn human blood according to already published procedures [Ginsburg et al., ibid.].
Chemiluminescence was measured in activated PMNs at 37° C. in a LUMAC/3M BIOCONTER M2010 connected to a linear recorder. PMNs (3*10^5 -2*10^6 /ml) were pipetted into plastic cuvettes, containing 1 ml HBSS, luminol (5*10^-5 M) and washed Streptococci 20 μl/ml (ten milliliters of a saline-washed suspension of group A Streptococci type 3 strain C203S of an optical density of 5.0 at 550 nm that was treated for 15 min at 37° C. with 100 μg/ml of poly L-histidine (PHSTD)HCL mol wt 23,000). The cationized suspension was then washed in normal saline and resuspended to the original volume. The cuvettes were mixed over a mechanical vortex and the chemiluminescence was immediately monitored until the peak CL was reached.
Modulation of chemiluminescence response was achieved by employing AMTP (compound B) molecules in various concentrations.
Two experiments were done. In the first experiment with 3-4*10^5 cells/ml, a concentration of less than 1 mM of compound B was required to quench 90% of light production. Control 1 in FIG. 13 represents neutrophils treated with streptococcus alone (14,000-17,000 light units at the peak), Spontaneous light production measurements were 1,400-2,000 light CPM. In the second experiment Control 2 represents 1.5*10^6 cells per 1 ml HBSS activation of the cells by cationized streptococcus produced between 50,000-63,000 light units at the peak. 8 mM of compound B reduced the light measurements to the base level of 3500 light units.

CCOP(=S)(NCCO)OCC [Compound B, 2-hydroxyamido diethyithionophosphate]
reduction of PN, comparative [1]: more effective in reducing PN
reduction of cyt C by compound itself [2]: did not reduce cyt C
second order reaction rate constant with superoxide ([2]; calculated from the initial slope): 8.1*10^2 M^-1 S^-1
light production at 8 mM (Human neutrophils (PMNs); 8 mM, 1.5*10^6 cells/ml, control 50,000-63,000): 3500 light units
IC90 (Human neutrophils (PMNs); Homo sapiens, Neutrophil, 3-4*10^5 cells/ml, read-out: concentration required to quench 90% of light production): < 1000 µM
reduction of light emission (Human neutrophils (PMNs); various concentrations): dose dependent reduction of light emission

Source: patent publication US6200962A, “Thionophosphate derivatives, process for their preparation and pharmaceutical compositions containing them” (priority 1994, dated 2001)
